TGI data for 9 compounds are collected here from PubChem BioAssay (NCI).

Some test systems named below: RPMI-8226 leukemia; A549 NSCLC; SF-268 CNS; A498 renal; NCI-H522 lung; SK-OV-3 ovarian; TK-10 renal; T-47D breast; OVCAR-5 ovarian; HCT-15 colon; HCT-116 colon; DU-145 prostate; CCRF-CEM leukemia; SR leukemia; IGROV1 ovarian.
Holding throughout (assay): NCI tumour cell line growth inhibition, 48 h

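Growth conditions: 96-well plates. Treatment: test compound, 48 hours, 5 concentrations. Analysis: linear interpolation between bracketing concentrations; unreached endpoints set to highest concentration. The concentration for full growth arrest is given as TGI.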 A value given as a limit tells only on which side of the number the result lay.

On to `COc1ccc(/C(CCl)=C(\Nc2ccccc2)c2ccc(OC)c(OC)c2)cc1OC`, for which the TGI in the experiment on RPMI-8226 leukemia, in the experiment with A549 NSCLC, in the experiment with SF-268 CNS, in the experiment with A498 renal, in the experiment with NCI-H522 lung and with SK-OV-3 ovarian was more than 100 µM throughout. Moreover, the TGI in the experiment on TK-10 renal, in the experiment on T-47D breast, in the experiment with OVCAR-5 ovarian, with HCT-15 colon, with HCT-116 colon and in the experiment on DU-145 prostate was more than 100 µM in each case. Further, the TGI with CCRF-CEM leukemia was more than 100 µM.

As for `COC(=O)/C=C/c1cnc2c(c1)oc(=O)n2CCc1ccccn1`, the TGI with RPMI-8226 leukemia, in the experiment on A549 NSCLC, in the experiment on SF-268 CNS, with SR leukemia, in the experiment on A498 renal and in the experiment on SK-OV-3 ovarian was more than 100 µM throughout. The TGI in the experiment with TK-10 renal, in the experiment with T-47D breast, in the experiment with OVCAR-5 ovarian, in the experiment on HCT-15 colon, in the experiment with HCT-116 colon and in the experiment with IGROV1 ovarian was more than 100 µM throughout. This compound also had a TGI with CCRF-CEM leukemia of 69 µM.

Consider `CC1CC(C)[C@H](O)C([C@H](O)CC2CC(=O)N(C)C(=O)C2)C1` (some centres not stated), for which the TGI in the experiment on RPMI-8226 leukemia, in the experiment on A549 NSCLC, with SF-268 CNS, in the experiment with A498 renal, in the experiment on NCI-H522 lung and in the experiment on SK-OV-3 ovarian was more than 100 µM each time. Further, the TGI with TK-10 renal, in the experiment on T-47D breast, in the experiment with OVCAR-5 ovarian, in the experiment with HCT-15 colon, with HCT-116 colon and in the experiment with DU-145 prostate was more than 100 µM throughout. Moreover, the TGI with IGROV1 ovarian and with CCRF-CEM leukemia was more than 100 µM in each case.

`CCC(C)C(C(=O)N/N=C1/SCC(=O)N1C)C(=O)N/N=C1/SCC(=O)N1C` (configuration not stated): the TGI in the experiment on RPMI-8226 leukemia, with A549 NSCLC, in the experiment on SF-268 CNS, with A498 renal, in the experiment on NCI-H522 lung and with SK-OV-3 ovarian was more than 100 µM in each case. In addition, the TGI with TK-10 renal, in the experiment on T-47D breast, in the experiment on OVCAR-5 ovarian, in the experiment with HCT-15 colon, in the experiment on HCT-116 colon and in the experiment with DU-145 prostate was more than 100 µM in each case. In the experiment with IGROV1 ovarian, this compound showed a TGI of more than 100 µM.

In the case of `Cc1cccc2[nH]c3cc(O)cc(O)c3c(=O)c12`, the TGI in the experiment on RPMI-8226 leukemia, with A549 NSCLC, with SF-268 CNS, with NCI-H522 lung, in the experiment with SK-OV-3 ovarian and in the experiment with TK-10 renal was more than 10 µM each time. Besides, the TGI in the experiment with T-47D breast, in the experiment on OVCAR-5 ovarian, in the experiment with HCT-15 colon, with HCT-116 colon, in the experiment on DU-145 prostate and in the experiment on IGROV1 ovarian was more than 10 µM in each case. The TGI in the experiment on CCRF-CEM leukemia was more than 10 µM.

With `O=S(=O)(C(=Ic1ccccc1)S(=O)(=O)C(F)(F)C(F)(F)C(F)(F)C(F)(F)F)C(F)(F)C(F)(F)C(F)(F)C(F)(F)F`, the TGI in the experiment on RPMI-8226 leukemia was 86.4 µM; with A549 NSCLC, 34.3 µM; in the experiment with SF-268 CNS it was 42.7 µM; in the experiment on SR leukemia it was 21.9 µM; in the experiment on A498 renal, 28.6 µM; in the experiment on NCI-H522 lung, 6.09 µM. In addition, the TGI is 30.4 µM in the experiment on SK-OV-3 ovarian; 29.9 µM in the experiment on TK-10 renal; 32.5 µM in the experiment on T-47D breast; 30.9 µM with OVCAR-5 ovarian; 33.7 µM in the experiment on HCT-15 colon; 36.9 µM in the experiment on IGROV1 ovarian. The compound also returned a TGI with CCRF-CEM leukemia of 18.1 µM.

Regarding `CC1=NN(c2nc(N)nc(/C(C#N)=C/c3ccc([N+](=O)[O-])o3)n2)C(C)(C)C1`, the TGI in the experiment on RPMI-8226 leukemia is more than 22.8 µM; in the experiment with A549 NSCLC it was 29.8 µM; with SF-268 CNS, 16.2 µM; with A498 renal, 32.6 µM; in the experiment with SK-OV-3 ovarian it was more than 52.3 µM; in the experiment on TK-10 renal it was 4.52 µM. Besides, the TGI with T-47D breast was 7.05 µM; in the experiment on OVCAR-5 ovarian it was 3.22 µM; in the experiment on HCT-116 colon, 2.94 µM; in the experiment on DU-145 prostate, 17 µM; in the experiment on IGROV1 ovarian, 3.82 µM; with CCRF-CEM leukemia it was more than 100 µM.

For `Nc1nc(N)c(C2=CCN(Cc3ccccc3)CC2)c(=O)[nH]1`, the TGI with RPMI-8226 leukemia, in the experiment on A549 NSCLC, in the experiment with SF-268 CNS, with A498 renal, with NCI-H522 lung and with SK-OV-3 ovarian was more than 100 µM throughout. Further, the TGI in the experiment on T-47D breast, with OVCAR-5 ovarian, in the experiment on HCT-15 colon, in the experiment on HCT-116 colon, in the experiment on DU-145 prostate and with IGROV1 ovarian was more than 100 µM throughout. The same compound yielded a TGI in the experiment with CCRF-CEM leukemia of more than 100 µM.

As for `O=c1cc(CO)n(CCc2c[nH]c3ccccc23)cc1O`, the TGI is more than 100 µM in the experiment with RPMI-8226 leukemia; more than 100 µM in the experiment on A549 NSCLC; 53.2 µM in the experiment on SF-268 CNS; 78.7 µM with NCI-H522 lung; more than 100 µM in the experiment on SK-OV-3 ovarian; more than 100 µM in the experiment on TK-10 renal. The TGI in the experiment on T-47D breast is 80.5 µM; in the experiment on OVCAR-5 ovarian, more than 100 µM; with HCT-15 colon, more than 100 µM; in the experiment with HCT-116 colon, more than 100 µM; in the experiment with DU-145 prostate, 83.3 µM; in the experiment on IGROV1 ovarian, more than 100 µM. Besides, the TGI in the experiment on CCRF-CEM leukemia turned out to be 69.8 µM.
